The target of one series is human mGluR5 (Homo sapiens, UniProt P41594). Nature of the series: Cell-based functional Ca2+ mobilization assay (FDSS), potentiation of glutamate EC20 response, H10H cell line. The settings on record: HEK H10H cells; for Emax: maximum average response at a single concentration, as percent of maximal glutamate response, glutamate EC20; for EC50: positive allosteric modulation in presence of glutamate EC20, concentration in mol/L. The text has this: Human mGluR5a cDNA in pCMV6-XL6 mammalian expression plasmid was purchased from OriGene Technologies, Inc. (catalogue number SC326357) and subcloned into pcDNA3.1(−). Human embryonic kidney (HEK)293A cells were then transfected with human mGluR5a pcDNA3.1(−) using LipofectAmine-2000 (Invitrogen) and monoclones were selected and tested for functional response using a Ca^2+ mobilization assay. Monoclones were named for the species (“H” for human) plus the location on the plate (e.g. “10H”).
HEK cells transfected with the human mGluR5a receptor (H10H or H12H cell line) were plated at 15,000 cells/well in clear-bottomed poly-D-lysinecoated assay plates (BD Falcon) in glutamate-glutamine-free growth medium and incubated overnight at 37° C. and 5% CO2. Cell-lines used were either the H10H or H12H cell-lines expressing the human mGluR5 receptor. The following day, the growth medium was removed and the cells were washed with assay buffer containing 1× Hank's balanced salt solution (Invitrogen, Carlsbad, Calif.), 20 mM HEPES, 2.5 mM probenecid, pH 7.4 and left with 20 μL of this reagent. Following this step, the cells were loaded with calcium indicator dye, fluo-4 AM, to a final concentration of 2 μM and incubated for 40-45 min at 37° C. The dye solution was removed and replaced with assay buffer. Cell plates were held for 10-15 min at room temperature and were then loaded into the Functional Drug Screening System 6000 (FDSS 6000, Hamamatsu, Japan).
After establishment of a fluorescence baseline for about 3 seconds, the compounds of the present invention were added to the cells, and the response in cells was measured. 2.3 minutes later an EC20 concentration of the mGluR5 receptor agonist glutamate was added to the cells, and the response of the cells was measured for about 1.7 minutes. All test compounds were dissolved and diluted to a concentration of 10 mM in 100% DMSO and then serially diluted into assay buffer for a 2× stock solution in 0.6% DMSO; stock compounds were then added to the assay for a final DMSO concentration of 0.3% after the first addition to the assay well. Calcium fluorescence measures were recorded as fold over basal fluorescence; raw data was then normalized to the maximal response to glutamate.
The concentration-response curves of compounds of the present invention, obtained in the presence of EC20 of mGluR5 receptor agonist glutamate to determine positive allosteric modulation, were generated using Microsoft Excel with IDBS XLFit add-ins. The raw data file containing all time points was used as the data source in the analysis template. This was saved by the FDSS as a tab-delimited text file. Data were normalized using a static ratio function (F/F0) for each measurement of the total 350 values per well divided by each well's initial value. Data was then reduced as to peak amplitudes (Max—Initial Min) using a time range that starts approximately 1 second after the glutamate EC20 addition and continues for approximately 40 seconds. This is sufficient time to capture the peak amplitude of the cellular Calcium response. Individual amplitudes were expressed as % EMax by multiplying each amplitude by 100 and then dividing the product by the mean of the amplitudes derived from the glutamate ECMax-treated wells. pEC50 values for test compounds were generated by fitting the normalized values versus the log of the test compound concentration (in mol/L) using a 4 parameter logistic equation where none of the parameters were fixed. Each of the three values collected at each concentration of test compound were weighted evenly. Individual values falling outside the 95% prediction limits of the curve fit were automatically excluded from the fit. […] These two methods are in good agreement for curves with a clear plateau at the high concentration range. […] For consistency purposes across the range of potencies observed, all EMax values reported in this application are calculated using the maximum average response at a single concentration. […]
On the technique in general: Calcium flux is commonly read through the fluorescence of an indicator in the cells.

The text below walks through data of patent US20130252943A1, “BICYCLIC OXAZOLE LACTAMS AS ALLOSTERIC MODULATORS OF MGLUR5 RECEPTORS” (VANDERBILT UNIVERSITY, priority 2012, published 2013).

Sequence of human mGluR5 (P41594 21-1180 isoform P41594-2 limits assumed): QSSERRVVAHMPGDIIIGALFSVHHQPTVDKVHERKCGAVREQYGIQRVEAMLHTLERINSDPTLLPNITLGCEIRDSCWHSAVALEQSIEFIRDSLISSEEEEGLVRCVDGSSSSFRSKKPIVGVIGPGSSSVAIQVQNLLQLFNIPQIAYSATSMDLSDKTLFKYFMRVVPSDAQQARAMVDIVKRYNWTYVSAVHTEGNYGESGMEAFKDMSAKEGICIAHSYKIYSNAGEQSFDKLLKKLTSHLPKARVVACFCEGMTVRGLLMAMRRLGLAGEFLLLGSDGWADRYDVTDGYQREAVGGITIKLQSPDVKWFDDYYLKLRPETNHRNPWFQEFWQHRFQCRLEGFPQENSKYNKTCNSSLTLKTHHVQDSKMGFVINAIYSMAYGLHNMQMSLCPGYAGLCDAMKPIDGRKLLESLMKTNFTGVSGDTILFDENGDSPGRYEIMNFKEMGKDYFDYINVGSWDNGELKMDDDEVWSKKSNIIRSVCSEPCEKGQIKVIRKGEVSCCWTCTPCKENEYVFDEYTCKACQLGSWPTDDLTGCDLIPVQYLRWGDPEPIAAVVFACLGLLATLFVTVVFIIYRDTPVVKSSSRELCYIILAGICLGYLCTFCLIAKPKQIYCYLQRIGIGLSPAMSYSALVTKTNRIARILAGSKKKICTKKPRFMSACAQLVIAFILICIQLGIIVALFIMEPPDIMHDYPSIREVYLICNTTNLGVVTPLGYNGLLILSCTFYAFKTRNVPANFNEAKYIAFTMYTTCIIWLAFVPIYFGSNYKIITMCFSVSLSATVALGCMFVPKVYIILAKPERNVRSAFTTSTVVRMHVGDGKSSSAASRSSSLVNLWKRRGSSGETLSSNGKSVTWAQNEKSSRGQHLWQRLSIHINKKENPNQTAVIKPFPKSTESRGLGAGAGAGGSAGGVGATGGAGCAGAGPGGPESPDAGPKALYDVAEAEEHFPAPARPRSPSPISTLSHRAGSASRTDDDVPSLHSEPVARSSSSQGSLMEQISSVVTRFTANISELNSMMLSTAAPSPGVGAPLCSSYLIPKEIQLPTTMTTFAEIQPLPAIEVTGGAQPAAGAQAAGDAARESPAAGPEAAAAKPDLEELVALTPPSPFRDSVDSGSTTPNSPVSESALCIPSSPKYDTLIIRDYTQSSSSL

What is called Emax is the size of the effect at its maximum, as opposed to the concentration needed. Broadly, the EC50 is the midpoint of the concentration-response curve. For `CC1Cc2nc(COc3ccccc3)oc2C(=O)N1c1ccc(F)cc1` (racemic) [Compound B27, (rac)-5-(4-fluoro-phenyl)-6-methyl-2-phenoxymethyl-6,7-dihydro-5H-oxazolo[5,4-c]pyridin-4-ONE], on human mGluR5, the Emax amounted to 64% and the EC50 was 575 nM.

As a reminder, the melting point is the temperature of the solid-liquid transition. As to `O=C1c2oc(COc3ccccc3)nc2CCN1c1ccc(F)cc1` [Compound B1, 5-(4-fluoro-phenyl)-2-phenoxymethyl-6,7-dihydro-5H-oxazolo[5,4-c]pyridin-4-one], the melting point was 135.8 °C. For the same molecule, on human mGluR5, the Emax is 83% and the EC50 was 447 nM.

`O=C1c2oc(COc3ccccc3)nc2CCN1c1ccccc1F` [Compound B2] showed a melting point of 116.1 °C. Further, on human mGluR5, the Emax came out at 74% and the EC50 was 1100 nM.

On to `O=C1c2oc(COc3ccccc3)nc2CCN1c1cccc(F)c1` [Compound B3], for which the melting point turned out to be 132.5 °C. Besides, on human mGluR5, the Emax came out at 71% and the EC50 is 1320 nM.

For `O=C1c2oc(COc3ccccc3)nc2CCN1c1cccc(F)c1F` [Compound B4], the melting point is 137.2 °C. Further, at human mGluR5, the Emax is 75% and the EC50 is 646 nM.

In the case of `O=C1c2oc(COc3ccccc3)nc2CCN1c1c(F)cccc1F` [Compound B5], at human mGluR5, the Emax was found to be 73% and the EC50 was 891 nM.

Molecule `O=C1c2oc(COc3ccccc3)nc2CCN1c1ccc(F)c(F)c1` [Compound B6] had a melting point of 151.7 °C. Moreover, at human mGluR5, the Emax amounted to 77% and the EC50 is 501 nM.

Regarding `O=C1c2oc(COc3ccccc3)nc2CCN1c1cc(F)cc(F)c1` [Compound B7], the melting point stood at 150.7 °C. In addition, at human mGluR5, the Emax was determined as 63% and the EC50 was 1510 nM.

`O=C1c2oc(COc3ccccc3)nc2CCN1c1ccccn1` [Compound B8] showed a melting point of 123.3 °C. On human mGluR5, the Emax turned out to be 32% and the EC50 is > 30200 nM.

On to `O=C1c2oc(COc3ccccc3)nc2CCN1c1cccnc1` [Compound B9], for which the melting point was found to be 188.7 °C. For the same molecule, on human mGluR5, the Emax came out at 38% and the EC50 is > 30200 nM.

On to `O=C1c2oc(COc3ccccc3)nc2CCN1c1ccncc1` [Compound B10], for which the melting point stood at 130.9 °C. At human mGluR5, the Emax turned out to be 49% and the EC50 was > 10000 nM.

For `O=C1c2oc(COc3ccccc3)nc2CCN1c1ccc(F)cn1` [Compound B11], the melting point was determined as 131.9 °C. Besides, on human mGluR5, the Emax was found to be 62% and the EC50 was 2140 nM.

Turning to `O=C1c2oc(COc3ccccc3)nc2CCN1c1cncc(F)c1` [Compound B12], the melting point turned out to be 133.1 °C. For the same molecule, at human mGluR5, the Emax came out at 27% and the EC50 is > 30200 nM.

Take `O=C1c2oc(COc3ccccc3)nc2CCN1c1ccccc1` [Compound B13]: the melting point worked out at 131.7 °C. Further, on human mGluR5, the Emax is 76% and the concentration giving a half-maximal response (EC50) was 1120 nM.

Regarding `Cc1cccc(N2CCc3nc(COc4ccccc4)oc3C2=O)n1` [Compound B14], the melting point worked out at 116.3 °C. For the same molecule, at human mGluR5, the Emax is 53% and the EC50 is > 10000 nM.

In turn, `Cc1ccc(N2CCc3nc(COc4ccccc4)oc3C2=O)nc1` [Compound B15] yielded a melting point of 132.4 °C. At human mGluR5, the Emax was 61% and the EC50 was > 10000 nM.

With `Cc1ccnc(N2CCc3nc(COc4ccccc4)oc3C2=O)c1` [Compound B16], the melting point is > 300 °C. For the same molecule, at human mGluR5, the Emax was 38% and the EC50 is > 10000 nM.

`Cc1cccnc1N1CCc2nc(COc3ccccc3)oc2C1=O` [Compound B17] displayed a melting point of 138.8 °C. On human mGluR5, the Emax is 43% and the half-maximal effective concentration (EC50) was > 10000 nM.

For `Cc1cc(N2CCc3nc(COc4ccccc4)oc3C2=O)ncc1F` [Compound B21], the melting point stood at 125.7 °C. Further, at human mGluR5, the Emax was found to be 56% and the EC50 is > 10000 nM.

As to `COc1nc(N2CCc3nc(COc4ccccc4)oc3C2=O)ncc1F` [Compound B22, 5-(5-fluoro-4-methoxy-pyrimidin-2-yl)-2-phenoxymethyl-6,7-dihydro-5H-oxazolo[5,4-c]pyridin-4-one], the melting point was determined as 216.7 °C. Also, on human mGluR5, the Emax was 65% and the EC50 is 1290 nM.

`COc1nccc(N2CCc3nc(COc4ccccc4)oc3C2=O)n1` [Compound B23] showed a melting point of 142 °C. Moreover, at human mGluR5, the Emax was 53% and the EC50 is 3090 nM.

Turning to `Cc1cncc(N2CCc3nc(COc4ccccc4)oc3C2=O)n1` [Compound B24], the melting point amounted to 138.8 °C. At human mGluR5, the Emax came to 44% and the EC50 is > 10000 nM.

The molecule `COc1nccnc1N1CCc2nc(COc3ccccc3)oc2C1=O` [Compound B25] gave a melting point of 131.1 °C. On human mGluR5, the Emax came to 47% and the EC50 was > 10000 nM.

As to `CC1CN(c2ccc(F)cc2)C(=O)c2oc(COc3ccccc3)nc21` (stereo not shown) [Compound B28], on human mGluR5, the Emax amounted to 79% and the EC50 is 646 nM.

`O=C1NCCc2nc(COc3ccccc3)oc21` [Compound B29, 2-phenoxymethyl-6,7-dihydro-5H-oxazolo[5,4-c]pyridin-4-one]: the melting point stood at 148.5 °C. Besides, on human mGluR5, the Emax turned out to be 21% and the EC50 was > 30200 nM.

Regarding `CN1CCc2nc(COc3ccccc3)oc2C1=O` [Compound B33, 5-methyl-2-phenoxymethyl-6,7-dihydro-5H-oxazolo[5,4-c]pyridin-4-one], at human mGluR5, the Emax came out at 35% and the EC50 was > 30200 nM.

Regarding `O=C1c2oc(COc3ccccc3)nc2CCN1CC1CC1` [Compound B34], the melting point was 119.2 °C. For the same molecule, at human mGluR5, the Emax amounted to 68% and the EC50 was 3470 nM.

`C[C@@H](N1CCc2nc(COc3ccccc3)oc2C1=O)C(C)(C)C` [Compound B35, (R)-2-phenoxymethyl-5-(1,2,2-trimethyl-propyl)-6,7-dihydro-5H-oxazolo[5,4-c]pyridin-4-one]: on human mGluR5, the Emax is 54% and the EC50 is 977 nM.

Regarding `O=C1c2oc(COc3ccccc3)nc2CCN1Cc1ccccc1` [Compound B36], on human mGluR5, the Emax was determined as 59% and the EC50 was 891 nM.

Regarding `O=C1NCCCc2nc(COc3ccccc3)oc21` [Compound B37, 2-phenoxymethyl-5,6,7,8-tetrahydro-3-oxa-1,5-diaza-azulen-4-one], on human mGluR5, the Emax stood at 21% and the EC50 is > 30200 nM.

Take `CN1CCCc2nc(COc3ccccc3)oc2C1=O` [Compound B39]: on human mGluR5, the Emax turned out to be 25% and the EC50 was > 30200 nM.
